# Test results as given in patent US8097615B2, “Neurofibrillary labels” (Wista Laboratories Ltd., priority 2001, dated 2012).
# Entries after “also recorded” stand apart in the source; their conditions may differ. Where two headings read alike, the source gives them in different places.
# Assays:
# [1] = test system: amyloid; test: Labelling / staining of amyloid deposits; format: binding
# [2] = test system: tangle fragments; test: Competitive binding assay: displacement of primulin fluorescence from tangle fragments (ifI); set-up: species or system human; details: for competition with / displacement of other ligands at tangles: fluorescence end point
# Experimental: IfI material was homogenised in a 0.2 ml glass homogeniser in PBS. To the suspension, test compounds were added to final concentrations ranging from 0.1% to 0.00001%. […] The suspensions were transferred to a glass slide, and examined by fluorescence microscopy across a range of fluorescence filter blocks, covering excitation and emission wavelengths between 380 nm and 570 nm. The end point sought in these observations was displacement of typical primulin fluorescence from tangle fragments.
# [3] = target: T1, tau-tau binding (Homo sapiens, UniProt P10636); test: Solid-phase tau-tau binding assay (dGA solid phase, dGAE liquid phase), tau Preparation 2; format: biochemical; details: for tau-tau binding relative to that seen in the absence of DMMB: tau typically 1 μM
# T1 construct: a truncated tau protein corresponding to the core fragment and terminating at Ala390-dGA; dGAE which terminates at Glu-391; made in house; host or cells: E. coli BL21 (DE3), pRK172; DE52 flow-through, P11 phosphocellulose, PEG concentration, no heat step (Preparation 2)
# T1 sequence (P10636 614-708 limits assumed): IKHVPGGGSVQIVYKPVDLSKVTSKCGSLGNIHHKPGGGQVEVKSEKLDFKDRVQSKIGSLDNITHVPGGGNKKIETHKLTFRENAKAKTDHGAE
# Experimental: Preparation 2 differs from Preparation 1 above in the following respects: (1) The concentration of cells at the sonication stage is increased by 5-fold. (2) A batchwise adsorption of non-tau proteins to DE52 is included. (3) The proteins are not subjected to heat treatment. (4) The final step involves concentration using polyethylene glycol.
# Escherichia coli is grown in 2×TY medium (Oxoid) supplemented with ampicillin (50 micrograms per ml) to late-logarithmic phase. Cells from 5 liters of culture are harvested by centrifugation and the cell pellets frozen rapidly over liquid nitrogen. The pellets are taken up with 50 mM PIPES (pH 6.8) containing 1 mM EDTA, 1 mM dithiothreitol and 1 mM phenylmethylsulphonylfluoride (PMSF) and bacteria lysed by sonication (2×3 min) at 4 C. The mixture is centrifuged at 10,000 rpm for 20 min. The supernatant is rotated with 1 gram of Whatman DE52 for 3 hr at 4 C. The mixture is separated on a column and the flow-through material that fails to bind to DE52 is incubated for 3 hr at 4 C, with rotation, with 0.4 g of Whatman P11 (freshly regenerated according to manufacturer's recommendations). The column is washed with column buffer (50 mM PIPES, pH 6.8 containing 1 mM EGTA, 5 mM EDTA, 0.2 mM MgCl2, 5 mM β-mercaptoethanol and 1 mM PMSF). Tau protein is eluted stepwise with a 0.1 to 1 M gradient of KCl in column buffer. Fractions containing tau (determined by immunoassay) are pooled and dialysed against 80 mM PIPES (pH6.8) containing 1 mM EGTA, 1 mM MgCl2 and 5 mM β-mercatoethanol, using dialysis tubing with a molecular weight cut-off of 1,000. The dialysate is concentrated by applying polyethylene glycol 8000 to the outside of the sac for 2-3 hr. The final concentration of tau ranged from 3 to 10 mg per ml.
# When the proteins dGA and dGAE were prepared as indicated above (“Preparation 2”), the properties of the tau-tau binding assay were altered relative to the properties obtained using the preparative method described in WO96/30766 (“Preparation 1”).
# The assay is performed using 96 well PVC plates (Falcon Cat. No. 353912 are used), and the following steps:
# 1. 50 μl dGA (˜10 μg/ml) in carbonate buffer, incubate 1 h at 37° C.
# (Carbonate buffer: 50 mM carbonate bicarbonate, pH 9.6 (Na2CO3 1.59 g/l, NaHCO3 2.93 g/l))
# 2. Wash plate in 0.05% Tween-20.
# 3. 200 μl PBS+2% Marvel, incubate 1 h at 37° C.
# 4. Rinse plate 2× in deionised water, then wash in 0.05% Tween-20.
# 5. 50 μl dGAE (˜10 μg/ml) plus drug in PBS+1% fish skin gelatin+0.05% Tween-20, incubate 1 h at 37° C.
# 6. Wash plate in 0.05% Tween-20.
# 7. 50 μl antibody 423 (1:10 dilution in PBS+2% Marvel), incubate 1 h at 37° C.
# 8. Rinse plate 2× in deionised water, then wash in 0.05% Tween-20.
# 9. 50 μl HRP-anti-mouse (1:1000 dilution in PBS+0.05% Tween-20), incubate 1 h at 37° C.
# 10. Wash plate in 0.05% Tween-20, then rinse 1× with deionised water.
# 11. 50 μl substrate solution, read immediately initial rate over 2 min in plate reader at OD650.
# (Substrate solution: 50 mM sodium acetate, pH 5.0+TMB (1 ml/100 ml of a 10 mg/ml solution in DMSO)+H2O2 (10 μl/100 ml)).
# [4] = test system: isolated PHFs; test: Ligand electronmicroscopy of Pronase-digested PHFs (gold-conjugated anti-biotin antibody); format: binding
# Experimental: (§1) In ifI suspensions such as this, tangles can be seen by blue fluorescence which is […] from that associated with binding of contaminants in the preparation. […] (a) Chemical labelling with the biotinylated benzothiazole analogue shown as 4b in FIG. 4. PHFs were deposited on a carbon-coated grid after Pronase digestion, and incubated briefly with compound 4b, and then incubated with an anti-biotin antibody preparation that had been conjugated with colloidal gold. […] (b) mAb 423 immunolabelling of isolated PHFs after Pronase digestion., followed by incubation with a gold-conjugated goat anti-mouse second antibody as described in Novak et al. 1993 (Novak M, Kabat J, Wischik C M (1993) “Molecular characterisation of the minimal protease-resistant tau unit of the Alzheimers' disease paired helical filament”, EMBO J. 12: 365-370). As shown in this paper, mAb 423 labels PHFs derived from intracellular tangles (which preserve N-terminal tau immunoreactivity in the fuzzy outer coat) poorly, but Pronase digested PHFs strongly.
# PHFs derived from an ifI fraction were deposited on a carbon coated grid after pronase digestion, and incubated briefly with a preparation of biotinylated Primulin, and then incubated with an anti-biotin antibody that has been conjugated with colloidal gold by the method of Slot and Gueze (1981).
# [5] = test system: PHFs; test: Spectrofluorometry of primulin in solution and bound to PHFs (ifII); format: binding; details: PHFs with bound primulin treated with the substance
# Experimental: These measurements were carried out in a Perkin-Elmer spectrofluorimeter (model MPF-3). A concentration of ligand of 0.00001% was routinely used for all measurements. […] All measurements were therefore carried out at a standard excitation wavelength of 370 nm, and a constant slit width of 3 mm.
# Further investigations into the relationship between aggregation-dependent tau ligands and tau aggregation inhibitors were carried out using primulin. Primulin in solution has a fluorescence peak at 520 nm. This shifts to 470 nm when primulin is bound within a pure preparation of PHFs (FIG. 6). […] Therefore, binding by such compounds is dependent on the polymerised state of tau found in the PHF, but is not present in free tau.
# Compounds have been identified which disrupt the structure of the PHF and reverse the proteolytic stability of the PHF core (see WO 96/30766). Examples of such compounds are shown in accompanying FIG. 8. The present inventors have now identified that these compounds bind to tau at a specific binding site within the high affinity tau-tau binding domain.
# [6] = test system: neurofibrillary tangles; test: Fluorescence labelling of tangles (sections, ifI tangle suspensions); format: binding, human
# Experimental: as §1
# Serial 16 μm sections are cut from the hippocampus of a case dying with clinically and neuropathologically confirmed AD. […]
# A Leitz fluorescence microscope fitted with a photo-multiplyer tube (Model MPV-2) was used to quantitate fluorescence emission. […]
compound,measurement,setting,value
2-(4-amino phenyl)-6-methyl-1-sulphonate benzothiazole [compound 2],displaced from amyloid by primulin,[1],not amyloid
same,labelling / staining of amyloid,[1],bind preferentially to amyloid
same,displaced from tangles by primulin (SB-ligand),[2],displaced from NFTs; also recorded: displace this from tangles
"Cc1cc(=[N+](C)C)cc2sc3cc(N(C)C)cc(C)c3nc1-2.[Cl-] [DMMB, dimethyl methylene blue]",inhibitory potency in Preparation 2 compared with Preparation 1,[3],higher inhibitory potency in Preparation 2 than in Preparation 1
same,tau-tau binding relative to that seen in the absence of DMMB,[3]; DMMB 5 μM,23%
same,tau-tau binding relative to that seen in the absence of DMMB,[3]; DMMB 15 μM,17%
O=C(O)CCCC[C@@H]1SC[C@@H]2NC(=O)N[C@@H]21 [biotin],immunogold anti-biotin labelling of isolated PHFs after pre-incubation,[4],no labelling
CC1=CC(=O)OC1=O [citraconic anhydride],effect on PHF-bound primulin fluorescence peak,[5],disrupting the orderly structure of PHFs and releasing free tau and free unbound primulin; also recorded: abolish the 470 nm fluorescence peak
Cc1ccc2sc(-c3ccc(N=Nc4ccccc4O)cc3)nc2c1S(=O)(=O)[O-].[Na+] [compound 4a],activity as ligand,[2],active ligands
same,competition with / displacement of other ligands at tangles,[2],compete out thiazin red and primulin fluorescence at equivalent concentrations
Cc1ccc2sc(-c3ccc(N=Nc4cc(CCC(=O)ON5C(=O)CCC5=O)ccc4O)cc3)nc2c1S(=O)(=O)[O-].[Na+] [compound 4b],immunogold anti-biotin labelling of isolated PHFs after pre-incubation,[4],binds to the proteolytically stable PHF structure; also recorded: label isolated PHFs
same,competition with / displacement of other ligands at tangles,[2],compete primulin and thiazin red
Cc1ccc2sc(-c3ccc(N=NNc4ccc(-c5nc6c(S(=O)(=O)[O-])c(C)ccc6s5)cc4)cc3)nc2c1S(=O)(=O)[O-].[Na+].[Na+] [thiazin yellow],activity as ligand,[2],inactive as a ligand; also recorded: does not serve as an effective ligand
same,competition with / displacement of other ligands at tangles,[2],did not
Cc1ccc2c(c1)sc(-c1ccc(N(C)C)cc1)[n+]2C.[Cl-] [thioflavin-T],labelling / staining of amyloid,[1],labelled amyloid preferentially; also recorded: strongly stain amyloid deposits
same,labelling / staining of amyloid,[1]; listed as 1b,bind preferentially to amyloid
same,labelling of tangles,[6],barely visible tangle; also recorded: much less effective
same,displaced from tangles by primulin (SB-ligand),[2],displaced by yellow tangle fluorescence produced by primulin; also recorded: can be displaced from tangles by primulin
same,displaced from tangles by primulin (SB-ligand),[2]; listed as 1b,displaced from NFTs
same,displaced from tangles by primulin (SB-ligand),[2]; listed as compound 1b,displace compound 1b at tangles
alcian blue,effect on PHF-bound primulin fluorescence peak,[5],no disturbance of the characteristic bound primulin fluorescence peak; also recorded: retention of the fluorescence peak of primulin at 470 nm
